These results are taken from patent US20050132448A1, “Assay for beta cell toxic macrolides” (priority 2001, published 2005).

Common to all, as to assay type: in vivo
Series [1] has as its system Balb/c mice. In words: Pancreatic immunoreactive insulin content by RIA on pancreas homogenates. As to conditions: treated 14 days previously, 15 minutes after glucose challenge. How it is done: Groups of 9 mice were treated with bafilomycin A1 or carrier solution then fasted, anaesthetised with penotobarbitone and challenged with glucose as described for the OGTT. Blood samples for insulin assay were collected from the orbital plexus from fasted mice or from mice 15 minutes after glucose challenge using 4×75 μl haematocrit tubes for each bleed. Serum samples were diluted 1 in 5 or 1 in 20 then assayed in duplicate for insulin content using a Linco sensitive rat insulin radioimmunoassay kit. Pancreata from the mice that were bled 15 minutes after glucose challenge were dissected and frozen on dry ice. The frozen pancreata were homogenised in 2 ml of PBS containing 1 mg/ml BSA per gram of pancreas by 10 strokes in a dounce homogeniser. The slurry was sonicated using 3×10 second bursts and then centrifuged at 12,000×g for 60 minutes. The supernatants were stored at −20° C. Insulin content was determined by sensitive rat insulin RIA using a 1 in 1,000 dilution of the homogenates.
Pancreatic immunoreactive insulin content was determined directly by RIA on homogenates of pancreas. Mice treated 14 days previously were fasted and then challenged with glucose 15 minutes prior to removal of the pancreas. […]

Series [2] relates to Balb/c mice. Briefly: Plasma immunoreactive insulin (radioimmunoassay). As to conditions: 7 days after treatment. How it is done: (§1) Male Balb/c mice were provided by the Monash University Central Animal House and Breeding Facility. The Monash University Department of Biochemistry Animal Ethics Committee approved all animal experimentation. Bafilomycin A1 (Sigma) was dissolved in 70% ethanol then diluted 1 in 10 with sterile phosphate buffered saline (PBS) to give a working stock of 4.8 μg/ml. Groups of between 3 and 9 mice as indicated were administered 12 μg per kilogram (body weight) bafilomycin A1 by intraperitoneal injection, which should achieve a final concentration in the blood of 275 nM bafilomycin A1 assuming a blood volume of 70 ml per kg for mice. […] Control mice received the ethanol/PBS carrier solution that lacked the inhibitor.
Groups of 9 mice were treated with bafilomycin A1 or carrier solution then fasted, anaesthetised with penotobarbitone and challenged with glucose as described for the OGTT. Blood samples for insulin assay were collected from the orbital plexus from fasted mice or from mice 15 minutes after glucose challenge using 4×75 μl haematocrit tubes for each bleed. Serum samples were diluted 1 in 5 or 1 in 20 then assayed in duplicate for insulin content using a Linco sensitive rat insulin radioimmunoassay kit. […] Insulin content was determined by sensitive rat insulin RIA using a 1 in 1,000 dilution of the homogenates.

The next series has as its target T1, vATPase (Mus musculus, UniProt P63082).
T1 construct: from tissue; host or cells: kidney of male Balb/c mice (crude homogenate, 700 x g supernatant)
In words: V-ATPase activity assay on kidney homogenates of bafilomycin A1 treated mice. As to conditions: for Bafilomycin A1 sensitive ATPase activity ± SD / total ATPase activity ± SD: kidney homogenate; for reduction of bafilomycin A1 sensitive ATPase activity: vs control. The protocol: as §1
Seven control mice, 4 mice treated 1 day previously and 4 mice treated 7 days previously with bafilomycin A1 were anaesthetised with 35 mg per kg body weight pentobarbitone (Nembutal) and the kidneys removed and immediately frozen on dry ice and stored at −80° C. until processed. The kidneys were weighed then homogenised in liquid nitrogen using a mortar and pestle. 1 ml of 10 mM Tris-Cl pH 8.0 and 2 mM Mg2Cl containing protease inhibitors was then added and the tissue was further homogenised with 5 strokes of a dounce homogeniser. One ml of 0.5 M sucrose, 40 mM Tris-Cl pH 8, 2 mM Mg2Cl was then added to the homogenate and the suspension was clarified by centrifugation at 700×g for 10 minutes at 4° C. Supernatents containing soluble and membrane bound components were then assayed in duplicate for ATPase activity by incubating 100 μl of a 1:100 dilution of the tissue extract with 1 mM ATP in Tris buffered saline (TBS) for 30 minutes in the well of a microtitre plate in the presence or absence of 15 μl of a 1 μM solution of bafilomycin A1 in a final reaction volume of 200 μl. The inorganic phosphate released was measured using the one-step method of Chan et al., (1986), and absorbances were read in a microtitre plate reader at a wavelength of 660 nm. Results were corrected for background phosphate concentration and ATP autohydrolysis. The protein content of each kidney extract was determined using the Bradford reagent (Biorad).

In series [3] the test system is Balb/c mice. In words: Oral glucose tolerance test (OGTT). How it is done: as §1
Groups of 6 control and 6 treated mice were fasted for 6-7 hours then anaesthetised by intraperitoneal injection of 35 mg/kg body weight of pentobarbitone (Nembutal) in order to minimise stress-induced variations in blood glucose. D-glucose (2 mg/g body weight) was delivered into the stomach by gavage as a 200 mg/ml solution. Blood glucose concentrations were determined for the fasted mice and at 15, 30, 60 and 120 minutes after glucose challenge as follows. Whole blood (approximately 60 μl) was collected from the tail vein and glucose concentrations were immediately determined by the glucose oxidase method using a YSI glucose analyser.

A further series deals with NOD/lt mice. In words: Acceleration of diabetes onset in NOD mice. As to conditions: 12 ng per gram i.p. on 5 consecutive days, 11-week-old female mice. How it is done:
The NOD mouse develops spontaneous diabetes due to an autoimmune mediated destruction of the pancreatic islet β-cells. The characteristics of diabetes development in the NOD mouse parallel those in humans, making the NOD mouse a useful model of human Type 1 diabetes. Lymphocytic infiltrates in the pancreatic islets, termed insulitis, first develops in NOD mice soon after weaning at 4 weeks of age and hyperglycaemia first appears from 18 to 32 weeks of age. Bafilomycin A1 was administered to NOD mice to test whether the onset of hyperglycaemia was accelerated.
Eleven-week-old female NOD/lt mice were injected intraperitoneally with either 12 ng per gram body weight of bafilomycin A1 (10 mice) or phosphate buffered saline carrier solution (10 mice) on each of 5 consecutive days. Blood glucose was monitored weekly and diabetes defined as a blood glucose measurement greater than 11 mmol/L.

T1 sequence (Q91V37 whole entry): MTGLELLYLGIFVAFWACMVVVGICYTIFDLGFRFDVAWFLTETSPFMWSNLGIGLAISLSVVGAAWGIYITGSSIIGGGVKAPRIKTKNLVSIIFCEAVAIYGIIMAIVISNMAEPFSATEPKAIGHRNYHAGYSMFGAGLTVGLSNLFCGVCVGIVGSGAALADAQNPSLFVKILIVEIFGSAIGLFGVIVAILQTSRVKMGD
T1 sequence (P63082 whole entry): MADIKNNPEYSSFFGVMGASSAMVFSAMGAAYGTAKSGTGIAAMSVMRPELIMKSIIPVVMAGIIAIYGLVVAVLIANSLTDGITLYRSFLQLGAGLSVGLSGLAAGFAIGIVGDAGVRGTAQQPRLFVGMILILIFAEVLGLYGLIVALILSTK

Consider `CO/C1=C\C(C)=C\[C@@H](C)[C@@H](O)[C@@H](C)C/C(C)=C/C=C/[C@H](OC)[C@@H]([C@@H](C)[C@@H](O)[C@H](C)[C@@]2(O)C[C@@H](O)[C@H](C)[C@@H](C(C)C)O2)OC1=O` [bafilomycin A1], for which, in the series on Balb/c mice [1], the “more pancreatic immunoreactive insulin than controls” value was determined as 70%. In addition, the “pancreatic immunoreactive insulin content (median)” value with Balb/c mice [1] is given as 565 μg IRI per gram of pancreas. Moreover, in the series with Balb/c mice [2], the “plasma insulin level fifteen minutes after glucose challenge” value turned out to be 15±10. In addition, the “fasting plasma immunoreactive insulin level” value with Balb/c mice [2] (fasting) came out at 1.2±0.8. The “kidney % of animal weight ± SD” value on vATPase (1 day after treatment) is recorded as 0.90 ± 0.11%; at vATPase (7 day after treatment), 0.90 ± 0.15%. Besides, the “weight or protein contents of the kidneys, treated vs control” value on vATPase (1 day and 7 days after treatment) is on record as “no significant differences”. Besides, the “Bafilomycin A1 sensitive ATPase activity ± SD” value on vATPase (1 day after 12 μg/kg i.p.) and on vATPase (7 day after 12 μg/kg i.p.) was 0.80 ± 0.30 Nmol/min/mg protein each time. The “total ATPase activity ± SD” value was determined as 4.4 ± 0.5 Nmol/min/mg protein on vATPase (1 day after 12 μg/kg i.p.) and 4.8 ± 0.8 Nmol/min/mg protein on vATPase (7 day after 12 μg/kg i.p.). The “reduction of bafilomycin A1 sensitive ATPase activity” value is reported as 50% at vATPase (kidney, 1 day after treatment) and 50% on vATPase (kidney, 7 days after treatment). Besides, the “reduction of bafilomycin A1 insensitive ATPase activity” value on vATPase (kidney, 1 day and 7 days after treatment) is listed as “not in bafilomycin A1 insensitive ATPase activity”. Moreover, the entries for the “blood glucose after 2 hours (OGTT)” value in the series with Balb/c mice [3] (21 days after treatment) and with Balb/c mice [3] (seven days after administration) were 4.2 ± 0.2 mM and 4.1 ± 0.4 mM, respectively. Further, the fasting glucose levels entry with Balb/c mice [3] (treated mice) is listed as “no change”. Besides, in the series on Balb/c mice [3] (twenty one days after administration), the “peak glucose level, 15 minutes after glucose challenge” value was 12.5 ± 2.4 mM. In addition, the “onset of islet beta cell destruction and hyperglycaemia” value in the series on NOD/lt mice is “slight acceleration”.
